Measured values published in ChEMBL document CHEMBL4800731, “Data for DCP probe JNJ-65355394” (2021).
Values belong to the molecule of their own block, whether it stands above or below them. Calls of active or inactive are those of the source. The rule behind the calls is not given here.

Assays:
Protein O-GlcNAcase = target: T1, Protein O-GlcNAcase (Homo sapiens, UniProt O60502); test: Cell-based OGA assay
T1 sequence (O60502 whole entry): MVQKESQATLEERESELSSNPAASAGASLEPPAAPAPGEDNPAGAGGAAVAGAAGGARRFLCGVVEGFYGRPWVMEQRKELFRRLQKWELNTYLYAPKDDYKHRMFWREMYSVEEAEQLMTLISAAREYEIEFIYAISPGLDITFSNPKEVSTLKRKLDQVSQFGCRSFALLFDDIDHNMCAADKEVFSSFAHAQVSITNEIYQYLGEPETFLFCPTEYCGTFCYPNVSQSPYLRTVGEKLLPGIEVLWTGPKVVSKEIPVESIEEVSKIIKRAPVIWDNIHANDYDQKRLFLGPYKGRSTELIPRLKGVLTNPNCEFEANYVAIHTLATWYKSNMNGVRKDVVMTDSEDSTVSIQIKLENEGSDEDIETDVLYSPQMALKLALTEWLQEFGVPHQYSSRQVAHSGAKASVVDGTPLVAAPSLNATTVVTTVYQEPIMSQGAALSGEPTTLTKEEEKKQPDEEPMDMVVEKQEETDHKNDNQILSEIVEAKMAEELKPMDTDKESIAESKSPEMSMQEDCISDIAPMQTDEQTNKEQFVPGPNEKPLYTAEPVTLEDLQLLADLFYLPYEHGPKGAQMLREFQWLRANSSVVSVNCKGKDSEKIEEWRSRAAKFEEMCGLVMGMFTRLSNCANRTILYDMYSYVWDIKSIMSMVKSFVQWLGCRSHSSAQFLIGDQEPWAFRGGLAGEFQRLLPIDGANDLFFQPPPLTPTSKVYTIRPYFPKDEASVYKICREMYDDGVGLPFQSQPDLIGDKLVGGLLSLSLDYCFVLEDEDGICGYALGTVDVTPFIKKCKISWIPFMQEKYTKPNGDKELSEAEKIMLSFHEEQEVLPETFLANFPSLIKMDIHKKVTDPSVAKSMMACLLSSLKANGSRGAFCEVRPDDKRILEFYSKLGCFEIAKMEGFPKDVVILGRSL

[1] = cML1 Cerep panel
[2] = target: 5-hydroxytryptamine receptor 2A (Homo sapiens) (UniProt P28223); test: h5HT2A Cerep panel
[3] = target: C-X-C chemokine receptor type 2 (Homo sapiens) (UniProt P25025); test: hBCXCR2 Cerep panel
[4] = target: D(2) dopamine receptor (Homo sapiens) (UniProt P14416); test: hD2S Cerep panel
[5] = target: Voltage-gated inwardly rectifying potassium channel KCNH2 (Homo sapiens, UniProt Q12809); test: hERG Cerep panel
[6] = target: Neuropeptide Y receptor type 1 (Homo sapiens) (UniProt P25929); test: hNPY1 Cerep panel
[7] = target: Nociceptin receptor (Homo sapiens) (UniProt P41146); test: hORL1 Cerep panel
[8] = target: 5-hydroxytryptamine receptor 1B (Rattus norvegicus) (UniProt P28564); test: r5HT1B Cerep panel
Rattus norvegicus = organism: Rattus norvegicus; test: rNaCH Cerep panel
[9] = target: Kappa-type opioid receptor (Rattus norvegicus) (UniProt P34975); test: rOP2 Cerep panel
[10] = target: Adenosine receptor A1 (Homo sapiens) (UniProt P30542); test: hA1 Cerep panel
[11] = target: Adenosine receptor A2a (Homo sapiens) (UniProt P29274); test: hA2A Cerep panel
[12] = target: Adenosine receptor A3 (Homo sapiens) (UniProt P0DMS8); test: hA3 Cerep panel
[13] = target: Cholecystokinin receptor type A (Homo sapiens) (UniProt P32238); test: hCCKA Cerep panel
[14] = target: Endothelin-1 receptor (Homo sapiens) (UniProt P25101); test: hETA Cerep panel
[15] = target: T2, Muscarinic acetylcholine receptor M2 (Homo sapiens) (UniProt P08172); test: hM2 Cerep panel
T2 sequence (whole entry): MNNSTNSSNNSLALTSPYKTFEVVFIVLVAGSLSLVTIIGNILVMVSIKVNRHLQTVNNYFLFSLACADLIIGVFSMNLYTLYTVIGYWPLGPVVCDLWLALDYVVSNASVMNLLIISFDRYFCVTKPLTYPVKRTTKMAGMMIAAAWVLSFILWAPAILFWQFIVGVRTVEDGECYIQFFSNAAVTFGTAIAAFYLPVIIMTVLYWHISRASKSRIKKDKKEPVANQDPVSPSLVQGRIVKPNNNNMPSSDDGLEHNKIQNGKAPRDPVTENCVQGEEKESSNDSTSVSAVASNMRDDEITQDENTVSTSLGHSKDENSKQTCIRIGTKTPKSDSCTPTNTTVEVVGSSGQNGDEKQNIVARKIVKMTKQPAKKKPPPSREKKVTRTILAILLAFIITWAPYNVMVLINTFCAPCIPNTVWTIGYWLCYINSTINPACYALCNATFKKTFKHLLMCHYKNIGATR

[16] = target: Muscarinic acetylcholine receptor M3 (Homo sapiens) (UniProt P20309); test: hM3 Cerep panel
[17] = target: Substance-K receptor (Homo sapiens) (UniProt P21452); test: hNK2 Cerep panel
[18] = target: Neuromedin-K receptor (Homo sapiens) (UniProt P29371); test: hNK3 Cerep panel
[19] = target: Delta-type opioid receptor (Homo sapiens) (UniProt P41143); test: hOP1 Cerep panel
[20] = target: Mu-type opioid receptor (Homo sapiens) (UniProt P35372); test: hOP3 Cerep panel
[21] = target: 5-hydroxytryptamine receptor 7 (Homo sapiens) (UniProt P34969); test: h5HT7 Cerep panel
[22] = target: Somatostatin receptor (Mus musculus) (UniProt P30935+O08858+P30875+P30873+P49660); test: mSST Cerep panel; assay type: protein assay
[23] = target: Histamine H1 receptor (Homo sapiens) (UniProt P35367); test: hH1 Cerep panel
[24] = target: Histamine H2 receptor (Homo sapiens) (UniProt P25021); test: hH2 Cerep panel
[25] = target: D(1B) dopamine receptor (Homo sapiens) (UniProt P21918); details: Compound concentration 10.0 uM
[26] = target: Sodium-dependent dopamine transporter (Homo sapiens, UniProt Q01959); test: GPCRScan assay: inhibition of DAT; set-up: radioligand conc. used [nm] 3.6 – 16.0, parental cells stable HEK
[27] = target: Alpha-2B adrenergic receptor (Homo sapiens, UniProt P18089); test: GPCRScan assay: inhibition of Alpha2B; set-up: radioligand conc. used [nm] 1.5 – 2.0, parental cells HEKT
[28] = target: 5-hydroxytryptamine receptor 1E (Homo sapiens) (UniProt P28566); details: Compound concentration 10.0 uM
[29] = target: D(1A) dopamine receptor (Homo sapiens) (UniProt P21728); details: Compound concentration 10.0 uM
[30] = target: Histamine H4 receptor (Homo sapiens) (UniProt Q9H3N8); details: Compound concentration 10.0 uM

Chain of Alpha-2B adrenergic receptor (P18089 whole entry): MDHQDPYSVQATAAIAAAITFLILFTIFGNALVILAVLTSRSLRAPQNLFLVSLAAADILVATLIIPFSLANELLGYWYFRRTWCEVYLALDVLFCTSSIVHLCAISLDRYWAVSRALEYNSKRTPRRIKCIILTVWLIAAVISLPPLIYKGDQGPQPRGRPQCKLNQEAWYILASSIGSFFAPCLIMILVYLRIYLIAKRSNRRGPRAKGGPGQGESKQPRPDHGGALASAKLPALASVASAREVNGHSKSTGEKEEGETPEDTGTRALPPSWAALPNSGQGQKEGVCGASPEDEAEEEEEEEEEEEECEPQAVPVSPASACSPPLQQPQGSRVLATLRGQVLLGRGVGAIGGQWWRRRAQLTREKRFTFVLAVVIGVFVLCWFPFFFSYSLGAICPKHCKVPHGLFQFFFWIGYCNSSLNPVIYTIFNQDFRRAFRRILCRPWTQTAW
Chain of Sodium-dependent dopamine transporter (Q01959 whole entry): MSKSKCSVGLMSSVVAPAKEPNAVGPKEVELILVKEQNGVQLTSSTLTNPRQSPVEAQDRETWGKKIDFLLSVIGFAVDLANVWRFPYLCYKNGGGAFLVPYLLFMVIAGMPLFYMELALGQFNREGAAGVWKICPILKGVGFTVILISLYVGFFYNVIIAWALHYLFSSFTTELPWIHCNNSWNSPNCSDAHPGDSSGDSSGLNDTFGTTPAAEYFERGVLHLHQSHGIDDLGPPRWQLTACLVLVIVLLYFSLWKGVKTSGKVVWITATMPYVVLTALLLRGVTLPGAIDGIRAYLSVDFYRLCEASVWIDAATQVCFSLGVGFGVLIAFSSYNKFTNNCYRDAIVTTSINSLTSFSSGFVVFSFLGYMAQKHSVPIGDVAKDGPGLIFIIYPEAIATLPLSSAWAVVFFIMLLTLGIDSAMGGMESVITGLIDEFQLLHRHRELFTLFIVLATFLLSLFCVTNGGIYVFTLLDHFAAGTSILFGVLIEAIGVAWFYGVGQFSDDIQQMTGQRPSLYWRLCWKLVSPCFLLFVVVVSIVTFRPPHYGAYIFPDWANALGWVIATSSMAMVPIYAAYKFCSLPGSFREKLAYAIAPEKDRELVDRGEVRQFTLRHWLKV
Chain of D(2) dopamine receptor (Homo sapiens) (P14416 whole entry): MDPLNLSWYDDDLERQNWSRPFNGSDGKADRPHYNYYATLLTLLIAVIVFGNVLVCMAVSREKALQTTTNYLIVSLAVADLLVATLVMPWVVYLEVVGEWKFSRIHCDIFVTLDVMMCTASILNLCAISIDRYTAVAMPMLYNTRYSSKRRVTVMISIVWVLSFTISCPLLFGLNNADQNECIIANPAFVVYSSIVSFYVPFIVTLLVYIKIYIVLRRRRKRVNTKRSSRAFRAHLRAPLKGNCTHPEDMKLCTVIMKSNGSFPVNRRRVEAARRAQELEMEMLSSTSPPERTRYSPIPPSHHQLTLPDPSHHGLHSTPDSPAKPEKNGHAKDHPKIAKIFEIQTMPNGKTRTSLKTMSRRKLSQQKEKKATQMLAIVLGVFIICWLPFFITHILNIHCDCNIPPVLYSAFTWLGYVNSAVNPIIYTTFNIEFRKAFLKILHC
Chain of Cholecystokinin receptor type A (Homo sapiens) (P32238 whole entry): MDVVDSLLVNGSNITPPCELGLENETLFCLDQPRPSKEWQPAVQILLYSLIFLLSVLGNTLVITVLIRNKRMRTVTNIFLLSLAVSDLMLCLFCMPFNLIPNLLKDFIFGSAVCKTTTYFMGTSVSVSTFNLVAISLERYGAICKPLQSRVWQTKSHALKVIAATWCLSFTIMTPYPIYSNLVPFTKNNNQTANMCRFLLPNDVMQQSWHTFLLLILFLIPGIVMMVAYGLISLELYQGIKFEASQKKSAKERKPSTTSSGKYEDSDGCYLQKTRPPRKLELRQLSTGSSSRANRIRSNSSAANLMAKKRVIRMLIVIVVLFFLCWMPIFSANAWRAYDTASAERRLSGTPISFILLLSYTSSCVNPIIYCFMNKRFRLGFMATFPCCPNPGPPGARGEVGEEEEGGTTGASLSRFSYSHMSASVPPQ
Chain of Substance-K receptor (Homo sapiens) (P21452 whole entry): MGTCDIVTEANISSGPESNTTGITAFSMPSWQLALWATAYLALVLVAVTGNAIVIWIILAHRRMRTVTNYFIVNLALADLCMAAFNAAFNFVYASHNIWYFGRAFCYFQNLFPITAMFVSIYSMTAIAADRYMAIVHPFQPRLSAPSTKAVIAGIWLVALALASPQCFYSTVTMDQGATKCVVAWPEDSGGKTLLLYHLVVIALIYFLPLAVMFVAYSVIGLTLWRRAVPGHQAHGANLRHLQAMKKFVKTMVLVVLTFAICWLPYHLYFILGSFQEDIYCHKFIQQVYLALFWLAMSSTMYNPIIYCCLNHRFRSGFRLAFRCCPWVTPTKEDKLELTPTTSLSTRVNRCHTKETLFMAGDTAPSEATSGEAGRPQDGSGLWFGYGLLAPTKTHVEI
Chain of Nociceptin receptor (Homo sapiens) (P41146 whole entry): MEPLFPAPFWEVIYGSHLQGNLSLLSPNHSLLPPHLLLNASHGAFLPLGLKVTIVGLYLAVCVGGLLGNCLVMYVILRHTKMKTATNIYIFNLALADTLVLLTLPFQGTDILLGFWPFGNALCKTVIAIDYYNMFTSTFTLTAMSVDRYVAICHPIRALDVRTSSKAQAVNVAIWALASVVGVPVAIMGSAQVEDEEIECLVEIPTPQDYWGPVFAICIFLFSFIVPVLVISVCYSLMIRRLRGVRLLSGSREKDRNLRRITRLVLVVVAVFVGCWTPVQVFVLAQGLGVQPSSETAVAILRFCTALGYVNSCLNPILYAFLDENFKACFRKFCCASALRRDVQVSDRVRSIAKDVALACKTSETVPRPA
Chain of Endothelin-1 receptor (Homo sapiens) (P25101 whole entry): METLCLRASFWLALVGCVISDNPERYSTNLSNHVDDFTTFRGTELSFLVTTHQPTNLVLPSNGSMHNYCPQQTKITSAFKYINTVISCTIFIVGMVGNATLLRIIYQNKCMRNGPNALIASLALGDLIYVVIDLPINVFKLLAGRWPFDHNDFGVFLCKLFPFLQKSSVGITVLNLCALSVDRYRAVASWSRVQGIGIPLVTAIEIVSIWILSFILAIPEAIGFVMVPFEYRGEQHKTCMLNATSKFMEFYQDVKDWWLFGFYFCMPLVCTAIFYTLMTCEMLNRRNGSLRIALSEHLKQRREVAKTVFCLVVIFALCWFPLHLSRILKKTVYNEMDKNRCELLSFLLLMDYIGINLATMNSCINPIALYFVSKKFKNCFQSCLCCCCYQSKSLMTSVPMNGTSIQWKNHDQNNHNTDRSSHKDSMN
Chain of Adenosine receptor A3 (Homo sapiens) (P0DMS8 whole entry): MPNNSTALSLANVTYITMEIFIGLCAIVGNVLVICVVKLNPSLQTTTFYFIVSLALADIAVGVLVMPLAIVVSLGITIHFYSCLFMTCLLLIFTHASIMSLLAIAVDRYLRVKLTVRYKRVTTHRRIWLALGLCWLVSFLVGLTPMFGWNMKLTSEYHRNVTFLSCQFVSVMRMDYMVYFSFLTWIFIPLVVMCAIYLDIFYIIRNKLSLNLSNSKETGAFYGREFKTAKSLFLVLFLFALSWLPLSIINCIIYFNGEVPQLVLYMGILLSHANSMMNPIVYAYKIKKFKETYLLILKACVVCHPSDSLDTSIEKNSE
Chain of Histamine H1 receptor (Homo sapiens) (P35367 whole entry): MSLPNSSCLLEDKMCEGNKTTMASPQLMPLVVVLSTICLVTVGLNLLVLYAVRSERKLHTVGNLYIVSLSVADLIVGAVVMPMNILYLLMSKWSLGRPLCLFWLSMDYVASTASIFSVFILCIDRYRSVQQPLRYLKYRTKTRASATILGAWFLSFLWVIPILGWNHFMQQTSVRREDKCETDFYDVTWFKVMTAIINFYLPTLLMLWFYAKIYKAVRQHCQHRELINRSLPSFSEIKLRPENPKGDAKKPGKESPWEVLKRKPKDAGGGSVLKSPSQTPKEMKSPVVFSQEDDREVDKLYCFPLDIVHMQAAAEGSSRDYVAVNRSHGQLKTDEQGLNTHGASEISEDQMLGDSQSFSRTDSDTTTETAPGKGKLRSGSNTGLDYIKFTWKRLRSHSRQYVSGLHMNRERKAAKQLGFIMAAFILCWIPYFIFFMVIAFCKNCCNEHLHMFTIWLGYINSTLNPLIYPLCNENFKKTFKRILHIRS
Chain of Kappa-type opioid receptor (Rattus norvegicus) (P34975 whole entry): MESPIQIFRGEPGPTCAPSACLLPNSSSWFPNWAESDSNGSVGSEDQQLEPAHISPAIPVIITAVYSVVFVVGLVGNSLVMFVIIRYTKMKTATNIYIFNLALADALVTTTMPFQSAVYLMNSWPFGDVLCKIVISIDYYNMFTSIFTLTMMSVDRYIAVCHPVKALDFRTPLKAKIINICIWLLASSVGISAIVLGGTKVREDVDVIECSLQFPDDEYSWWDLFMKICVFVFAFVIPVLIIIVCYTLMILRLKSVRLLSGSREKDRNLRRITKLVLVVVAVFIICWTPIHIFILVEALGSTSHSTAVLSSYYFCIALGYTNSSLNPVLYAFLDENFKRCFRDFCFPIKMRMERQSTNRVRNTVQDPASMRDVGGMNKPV
Chain of Neuropeptide Y receptor type 1 (Homo sapiens) (P25929 whole entry): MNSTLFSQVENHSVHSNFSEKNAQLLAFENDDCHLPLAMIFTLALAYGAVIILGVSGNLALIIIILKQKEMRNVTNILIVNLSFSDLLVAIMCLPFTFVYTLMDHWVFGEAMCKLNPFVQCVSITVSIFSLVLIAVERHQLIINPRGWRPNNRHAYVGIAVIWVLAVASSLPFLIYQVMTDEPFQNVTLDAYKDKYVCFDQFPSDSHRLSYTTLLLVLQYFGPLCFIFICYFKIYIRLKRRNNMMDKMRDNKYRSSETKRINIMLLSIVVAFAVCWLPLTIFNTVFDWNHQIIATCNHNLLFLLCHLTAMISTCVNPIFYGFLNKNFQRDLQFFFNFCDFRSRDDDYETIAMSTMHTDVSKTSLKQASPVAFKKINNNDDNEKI

IC50 (Protein O-GlcNAcase): 0.0039 µM (active)
effect [1]: 11.5%
effect [2]: 4.1%
effect [3]: 0.85%
effect [4]: 10.5%
effect [6]: -7.35%
effect [7]: -5.7%
effect [8]: -9.65%
effect (Rattus norvegicus): 1.6%
effect [9]: 77.8%
effect [10]: -13.2%
effect [11]: 4.9%
effect [12]: 16%
effect [13]: -22%
effect [14]: 3.6%
effect [15]: 25.4%
effect [16]: 45.5%
effect [17]: 4.5%
effect [18]: 7%
effect [19]: 20.4%
effect [20]: 55.4%
effect [21]: -1.65%
effect [22]: 4.2%
effect [23]: 5.7%
effect [24]: 11.4%
inhibition [25]: 7.69%
SMILES: CC(=O)Nc1ncc(CN2CCC[C@H](Cc3cc(C)nc(C)c3)C2)s1 [JNJ-65355394]
effect [5]: 10%

Ki ([26]; read-out: Ki): 5.28 µM
Ki ([26]; read-out: pKi (converted)): 5.25 µM
Ki ([27]; read-out: Ki): 3.69 µM
Ki ([27]; read-out: pKi (converted)): 3.67 µM
inhibition [28]: 0.93%
inhibition [29]: 10.7%
inhibition [30]: -0.6%
SMILES: CC(=O)Nc1nc(CN2CCC[C@H](Cc3cc(C)nc(C)c3)C2)cs1 [JNJ-73924149]
